Source: patent US4172145A, “Benzo(b)furylacetic acid derivatives to reduce inflammation” (priority 1975, dated 1979)
Where two headings read alike, the source gives them in different places.

What was measured:
[1] = in vivo; conditions: oral, observed one week, Litchfield and Wilcoxon
Protocol: In this test, five groups, each consisting of 5 mice (male dd strain; weight: 19-21 g) and 5 rats (male Wistar strain; weight: 100-120 g) were used. […] The LD50 was calculated according to the method of Litchfield and Wilcoxon [Journal of Pharmacol. and Exper. Therap.

[2] = system: carrageenin-induced edema on the hind paw of rats; assay: Anti-edema effect on carrageenin-induced edema on the hind paw of rats (Carrageenin Edema Method); assay type: in vivo, rat (male Wistar strain); conditions: rat, oral, 3 hours after carrageenin; for inhibition in vivo at 75 mg/kg / inhibition in vivo at 150 mg/kg / inhibition in vivo at 300 mg/kg: read-out: Anti-edema Effect, Suppression Ratio
Protocol: The anti-edema effect was determined according to the method of Yamazaki et al [Yamazaki, H., et al; Folia Pharmacologica Japonica, 63, 302 (1967)].
In this test, a group consisting of five rats (male Wistar strain: weight 100-120 g) was used for the test and control groups. The compounds shown in Table 2 were administered orally to the rats of the test group. After one hour, 0.1 ml of a 1% carrageenin solution (phlogistic agent) was further administered to each rat by subcutaneous injection in one hind paw. To each rat of the control group, 0.1 ml of a 1% carrageenin solution was also administered in a similar manner to that for test rats. 1, 3 and 5 hours after administration of the phlogistic agent, the swelling ratio was calculated by means of the following equation: […]
Test group [formula] in which b: swelling ratio
B: volume of a hind paw without administration of phlogistic agent
B': volume of a hind paw administered with phlogistic agent
Control group [formula] in which a: swelling ratio
A: volume of a hind paw without administration of phlogistic agent
A': volume of a hind paw administered with phlogistic agent
The anti-edema effect was expressed as the suppression ratio of the edema in comparison with the control group to which the test compound had not been administered. The suppression ratio of the edema was determined 3 hours after administration of the phlogistic agent and was calculated by means of the following equation: [formula] in which a and b are as hereinbefore defined.

[3] = system: acetic acid-induced writhing reactions in mice; assay: Analgesic activity in mice (AcOH Writhing Method); assay type: in vivo, mouse (male dd-strain); conditions: mouse, oral; for inhibition in vivo at 150 mg/kg / inhibition in vivo at 300 mg/kg: 1 h before acetic acid, read-out: Analgesic Effect (AcOH Writhing Method), Suppression Ratio; for ED50: read-out: Analgesic Effect (AcOH Writhing Method), ED50
Protocol: In this test, three groups, each consisting of 10 mice (male dd-strain; weight: 19-21 g) were used. The compounds shown in Table 3 were administered orally to the test mice. One hour after the administration, the mice were treated with 0.1 ml/10 g of 0.7% acetic acid solution in physiological saline by intraperitoneal injection according to the method of Koster et al [Koster, R., et al; Fed. Proc., 18, 412 (1959)]. Ten minutes after the treatment, the number of writhing reactions occurring in the mice was counted.

[4] = system: pain threshold of inflamed and not inflamed paws of rats; assay: Analgesic activity in rats (Randall-Selitto Method); assay type: in vivo, rat (male Wister strain); conditions: Rattus norvegicus, po, P.O. 150 mg/kg, read-out: Analgesic Coefficient
Protocol: A group consisting of 6-7 rats (male Wister strain; weight: 100-120 g) was used for the test and control groups in this test. Each rat of both groups was treated with 0.1 ml of a 1% carrageenin solution as phlogistic agent by subcutaneous injection in one hind paw. 3 hours after the administration, pressure was applied to the treated paw of each rat by means of a pressing device (manufactured by Ugobasile S. A., Italy). The threshold of pain induced by press was measured with reference to the shriek and struggle according to the method of Randall and Selitto [Randall, L. O. and Selitto, J. J.; Arch, Int. Pharmocodyn., 111, 409 (1957)]. From each group 5 rats having a good response reaction, i.e. the pain threshold was not more than 70 g, were respectively selected. […] 1, 2 and 3 hours after administration, pressure was again applied to both the inflamed and not inflamed paws of the test rats and the pain threshold was measured. On the other hand, without the administration of the active compound, the pressure was applied to both the inflamed and not inflamed paws of the selected 5 rats of the control group and the pain threshold was measured. The inflamed paws of the test and control groups were compared with each other. Also the not inflamed paws of the both groups were compared with each other.
The analgesic coefficient was calculated by means of the following equation, and the larger analgesic coefficient the better analgesic activity. [formula] in which X: analgesic coefficient (%)
P1 : threshold (g) of the test rats administered with active compounds
P2 : threshold (g) of the control rats without administration of active compound

[5] = in vivo; conditions: rat, po
Protocol: A test group consisting of 10-15 rats (male Wistar strain; weight: 180-220 g) was used in this test. Each rat was fasted for 20 hours, but water was allowed ad libitum. The compounds shown in Table 5 were administered orally. After a 20-hour interval during which the rats were not fed but were allowed water, each rat was administered under ether anesthesia with 0.5 ml per 100 g body weight of a 5% solution of pontamine sky blue 6BX in saline (pH 7.2--adjusted with 0.5 N HCl) by intravenous injection. 15 minutes after administration each rat was killed. The stomach was removed and maintained in a 1% formalin solution. After about 2 hours, the stomach was opened along the greater curvature and the length of lesions (dark blue areas against pale blue background) in the glandular portion was measured under a dissecting microscope (10×) provided with a square grid. The sum of the lengths (mm) of lesions was used as ulcer index.

[6] = Eur. J. Med. Chem. 1975-10, N. 2, p. 182-186; cited from earlier work
[7] = Eur. J. Med. Chem. 1975-10, N. 2, p. 182-186; cited from earlier work; remark: listed apart in the source
[8] = mouse, read-out: Acute Toxicity (P.O.), LD50, Mouse
[9] = rat, read-out: Acute Toxicity (P.O.), LD50, Rat

SMILES: COc1ccc2oc(CC(=O)O)c(C)c2c1 [Test Compound 3, 5-methoxy-3-methyl-2-benzo(b)furylacetic acid]
- LD50 at 168 h [1, 8]: 1110 mg/kg
- LD50 at 168 h [1, 9]: > 1000 mg/kg
- inhibition in vivo at 75 mg/kg [2]: 34.5%
- inhibition in vivo at 150 mg/kg [2]: 60.8%
- inhibition in vivo at 300 mg/kg [2]: 73.1%
- ED50 [2]: 110 mg/kg
- inhibition in vivo at 150 mg/kg [3]: 20.8%
- inhibition in vivo at 300 mg/kg [3]: 53.6%
- ED50 [3]: 280 mg/kg
- change in vivo at 150 mg/kg ([4]; 1 h, inflamed paw, 1 hr.): 24.1%
- change in vivo at 150 mg/kg ([4]; 1 h, not inflamed paw, 1 hr.): 1.9%
- change in vivo at 150 mg/kg ([4]; 2 h, inflamed paw, 2 hr.): 5.2%
- change in vivo at 150 mg/kg ([4]; 2 h, not inflamed paw, 2 hr.): 0%
- change in vivo at 150 mg/kg ([4]; 3 h, inflamed paw, 3 hr.): 0%
- change in vivo at 150 mg/kg ([4]; 3 h, not inflamed paw, 3 hr.): 0%
- TD50 at 20 h [5]: > 300 mg/kg

SMILES: O=C(O)Cc1cc2cc(Cl)ccc2o1 [chloro-5 benzoful-2-acetate]
- anti-inflammatory activity versus phenylbutazone [6]: lower anti-inflammatory activity
- toxicity versus phenylbutazone [7]: minor toxicity than phenylbutazone

SMILES: Cc1ccc2oc(CC(=O)O)c(C)c2c1 [Test Compound 4, 3,5-dimethyl-2-benzo(b)furylacetic acid]
- LD50 at 168 h [1, 8]: 1310 mg/kg
- LD50 at 168 h [1, 9]: > 1000 mg/kg
- inhibition in vivo at 75 mg/kg [2]: 43.8%
- inhibition in vivo at 150 mg/kg [2]: 56.2%
- inhibition in vivo at 300 mg/kg [2]: 70.9%
- ED50 [2]: 100 mg/kg
- inhibition in vivo at 150 mg/kg [3]: 11.2%
- inhibition in vivo at 300 mg/kg [3]: 41.4%
- ED50 [3]: 350 mg/kg
- change in vivo at 150 mg/kg ([4]; 1 h, inflamed paw, 1 hr.): 35.4%
- change in vivo at 150 mg/kg ([4]; 1 h, not inflamed paw, 1 hr.): 0%
- change in vivo at 150 mg/kg ([4]; 2 h, inflamed paw, 2 hr.): 18.8%
- change in vivo at 150 mg/kg ([4]; 2 h, not inflamed paw, 2 hr.): 0%
- change in vivo at 150 mg/kg ([4]; 3 h, inflamed paw, 3 hr.): 7.1%
- change in vivo at 150 mg/kg ([4]; 3 h, not inflamed paw, 3 hr.): 0%
- TD50 at 20 h [5]: > 300 mg/kg

SMILES: O=C(O)c1cc2cc(Cl)ccc2o1 [chloro-5-benzo(b)furyl-2 carboxylic acid]
- anti-inflammatory activity versus phenylbutazone [6]: lower anti-inflammatory activity
- toxicity versus phenylbutazone [7]: minor toxicity than phenylbutazone

SMILES: COc1ccc2oc(CC(=O)O)cc2c1 [methoxy-5 benzo(b)furyl-2-acetate]
- anti-inflammatory activity versus phenylbutazone [6]: lower anti-inflammatory activity
- toxicity versus phenylbutazone [7]: minor toxicity than phenylbutazone
